Measurements published in ChEMBL document CHEMBL1147222, “Lowdenic acid: a new antifungal polyketide-derived metabolite from a new fungicolous Verticillium sp” (2003).
Converted amounts (≈) assume the structure as drawn.

Experiments:
Type in all cases: functional
[1] = test system: Aspergillus flavus; test: Antifungal activity against Aspergillus flavus NRRL 6541 at 250 ug/disk; settings: read-out: IZ
[2] = test system: Aspergillus flavus; test: Antifungal activity against Aspergillus flavus NRRL 6541
[3] = test system: Candida albicans; test: Antifungal activity against Candida albicans ATCC 90029 at 200 ug/disk by standard disk assay; settings: read-out: IZ
[4] = test system: Staphylococcus aureus; test: Antibacterial activity against Staphylococcus aureus ATCC 29213 at 200 ug/disk by standard disk assay; settings: read-out: IZ
[5] = test system: Bacillus subtilis; test: Antibacterial activity against Bacillus subtilis ATCC 6051 at 200 ug/disk by standard disk assay; settings: read-out: IZ

MIC [2]: 6 µg/mL (≈ 13.4 µM)
SMILES: CCCCCCCCCC[C@@H](C)CCC[C@@]1(C)C=C/C(=C2/C(=O)O[C@H](CC(=O)O)C2=O)O1 [LOWDENIC ACID]
zone of inhibition at 250 µg/disc [1]: 14 mm
zone of inhibition at 200 µg/disc [3]: 9 mm
zone of inhibition at 200 µg/disc [4]: 12 mm
zone of inhibition at 200 µg/disc [5]: 17 mm
